Tests used:
[1] = tested on: corneal epithelium in wounded mouse eyes; experiment: In vivo healing of mouse corneal epithelium (corneal wound model, fluorescein staining); design: species or system mouse (C57BL/6); details: 25 nM (about 3 mg/kg) in aqueous PBS, applied after 1.5 mm epithelial wound; within 16 hours post-treatment; compared to PBS and EGF controls
Procedure: The FIG. 1s a series of photomicrographs depicting the healing of a wound in the cornea of mouse eye, at time 0 and 16 hours post-wounding, upon treatment with certain compositions of the present invention. Wounds were introduced into the corneas of mice, and the mice treated immediately after wounding with vehicle (PBS), with 100 ng/ml of epidermal growth factor (EGF), or with 25 nM (about 3 mg/kg) of a (Pro-Pro-Gly)7 CMP of the invention (SEQ ID NO:1) (“Cmpd 3”), or of a (Hyp-Pro-Gly)7-SubP CMP-TC of the invention (SEQ ID NO:390) (“Cmpd 10”).
To examine the possible therapeutic effects of CMPs and CMP-TC conjugates of the invention, studies were designed to test certain CMPs and CMP-TC conjugates in an in vivo setting—the healing of the corneal epithelium in wounded mouse eyes. […] Wound size at various time points over 48 hours was examined by fluorescein staining (see Carlson et al., id.), and documented via fluorescent photomicrography, and quantified using Image J software (see Rush, J. S. et al., Investig. Ophthalmol. Visual Sci. 57 (14): 5864-5871 (2016); Rush, J. S. et al., Investig. Ophthalmol. Visual Sci. 55 (8): 4691-4699 (2014)). […]

[2] = triple helix of the peptide chains; Sakakibara et al. 1973; cited from earlier work

| Substance | wound healing in mouse cornea and corneal stroma (reduction in diameter and intensity of fluorescein fluorescence) [1] | melting temperature of a triple helix [2] [°C] |
| --- | --- | --- |
| (Pro-Pro-Gly)7 [Cmpd 3] | significant acceleration of wound healing |  |
| (ProHypGly)10 |  | 58 |
| (ProProGly)10 |  | 24 |
| (Hyp-Pro-Gly)7-SubP [Cmpd 10] | significant acceleration of wound healing |  |

Reference: patent US12551525B2, “Collagen peptide-based medicament compositions and devices and methods of production and use thereof” (SUSTAIN HOLDINGS, LLC, priority 2017, dated 2026)
